The test system of the test is CEM cells HIV-1 protection, formazan growth assay. Kind of test: NCI AIDS Antiviral Assay. The conditions noted are these: for IC50: measured here: growth of uninfected CEM cells. An outline of the steps:
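Protection of CEM cells against HIV-1 was scored from cell growth (soluble formazan) across five concentrations, with parallel uninfected cells. Lack of protection may reflect toxicity.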

Active and inactive are the calls of the source.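 Rule for the calls: active = compounds giving half or more protection of infected cells from virus-caused growth loss, again on retest; inactive = the rest.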 Where a SMILES comes first, the peptide text is derived from it. [ ]: non-standard residue; d: D form. Phe(4-Cl) = N[CH](Cc1ccc(Cl)cc1)C(=O)O; 2Nal = N[CH](Cc1ccc2ccccc2c1)C(=O)O; 3Pal = N[CH](Cc1cccnc1)C(=O)O

On to `COC(=O)c1ccc(COC(=O)c2cc(C(=CCC[C@H]3CC[C@@]4(C)[C@@H](CC[C@@H]5[C@@H]4CC[C@]4(C)[C@@H](C(C)CCCC(C)C)CC[C@@H]54)C3)c3cc(Cl)c(OCc4ccc(C(=O)OC)cc4)c(C(=O)OCc4ccc(C(=O)OC)cc4)c3)cc(Cl)c2OCc2ccc(C(=O)OC)cc2)cc1` (stereo partly drawn), for which the EC50 is > 200 µM and the IC50 was > 200 µM.

For the compound `Cc1ccc(S(=O)(=O)OCCOS(=O)(=O)c2ccc(C)cc2)cc1`, the EC50 was > 36.3 µM and the IC50 is > 36.3 µM.

Turning to `Cc1cn([C@H]2C[C@@H]3[C@@H](COC(CCCC[Se]c4ccccc4)N3O)O2)c(=O)[nH]c1=O` (stereo partly drawn), the EC50 is 14.8 µM and the IC50 amounted to 105 µM.

In the case of `O=C1c2scc(-c3ccc(F)cc3)c2-n2cccc21`, the EC50 was > 200 µM and the IC50 is 30.2 µM.

Take `Clc1ccccc1C1SCc2nc3ncccc3n21` (stereo not drawn): the EC50 was > 91.2 µM and the IC50 worked out at 67.6 µM.

Turning to `Cc1ccc(S(=O)(=O)ON/N=C2/C3OC3[C@@H]3CCCC[C@H]23)cc1` (stereo partly drawn), the EC50 was > 389 µM and the concentration for half-maximal inhibition (IC50) turned out to be 195 µM.

On to `Clc1nc(Cl)nc(-c2cccn2-c2ccccc2)n1`, for which the EC50 was > 200 µM and the IC50 turned out to be 129 µM.

As to `Cc1cc(S(=O)(=O)NC(=NCCc2ccccc2)NN)c(S)cc1Cl`, the EC50 was > 200 µM and the IC50 was found to be 25.7 µM.

For the compound `CCc1nc2ccc(N=NN(C)C)cc2[nH]1`, the EC50 is 85.1 µM and the IC50 is 107 µM.

For `COc1ccc(-c2onc3ccc(Cl)cc23)cc1`, the EC50 was > 20 µM and the IC50 was > 20 µM.

Consider `CC1(C)CNC(=S)S1`, for which the EC50 was > 339 µM and the IC50 was > 339 µM.

In the case of `COc1ccc(C2=C(N)c3c(OC)cccc3C2=O)cc1`, the EC50 was > 200 µM and the IC50 was > 200 µM.

As to `O=C1C(Cl)N(c2cccc([N+](=O)[O-])c2)C1c1c[nH]c2ccccc12` (stereo not drawn), the EC50 is > 105 µM and the IC50 came to 5.01 µM.

With `COC(=O)C1=CCC(n2cnc3c(Cl)nc(N)nc32)CC1` (stereo not drawn), the EC50 was > 115 µM and the IC50 amounted to 47.9 µM.

Turning to `CC(C)c1ccc(C2NC(=S)NC3=C2c2ccccc2C3=O)cc1` (stereo not drawn), the EC50 was > 107 µM and the IC50 worked out at 14.8 µM.

With `N#CC1(C#N)C(c2ccccc2)C=CC12OCCCO2` (stereo not drawn), the result was inactive.

For `C/C(=N/NC(=S)N(C)CCc1ccccn1)c1cnccn1`, the EC50 is > 0.2 µM and the IC50 was 0.0178 µM.

In the case of `O=[N+]([O-])c1ccc(N/N=C2/CC3=C2CCCCCCCCCC3)c([N+](=O)[O-])c1`, the EC50 is > 100 µM and the IC50 is > 100 µM.

For the compound `COc1cc(CC(=O)c2ccc3c(c2)OCO3)cc(OC)c1OC`, the EC50 was > 204 µM and the IC50 was > 204 µM.

In the case of `COc1cccc(C2c3cc4c(cc3OC(NNS(=O)(=O)c3ccc(C)cc3)C2C)OCO4)c1O` (stereo not drawn), the EC50 was > 200 µM and the IC50 was found to be 10.5 µM.

Take `Cc1cc(Cl)ccc1N=C1NC(=O)C(CC(=O)Nc2ccc(Cl)cc2Cl)S1` (stereo not drawn): the EC50 was > 407 µM and the IC50 stood at 224 µM.

On to `CC(=O)NC(Cc1ccc2ccccc2c1)C(=O)NC(Cc1ccc(Cl)cc1)C(=O)NC(Cc1cccnc1)C(=O)NC(CO)C(=O)NC(Cc1ccc(O)cc1)C(=O)NC(CCCN=C(N)N)C(=O)NC(CC(C)C)C(=O)NC(CCCN=C(N)N)C(=O)N1CCCC1C(=O)NC(C)C(N)=O` (stereo not drawn) (Ac-[2Nal][Phe(4-Cl)][3Pal]SYRLRPA-NH2; configuration not given here), for which the EC50 is > 61.7 µM and the half-maximal inhibitory concentration (IC50) was determined as 15.1 µM.

In the case of `O=C(Nc1ncnc2c1ncn2C1OC(CO)CC1F)c1ccccc1` (stereo not drawn), the result was inactive.

With `COC(=O)[C@@H](N1C(=O)c2ccccc2C1=O)C1(C)CC(Cl)=NO1` (stereo partly drawn), the EC50 was > 200 µM and the IC50 is > 200 µM.

Turning to `COc1ccc(-c2nc(SC3OC(COC(C)=O)C(OC(C)=O)C(OC(C)=O)C3OC(C)=O)n(C3OC(COC(C)=O)C(OC(C)=O)C(OC(C)=O)C3OC(C)=O)c(=O)c2C#N)cc1` (stereo not drawn), the IC50 is > 100 µM.

Regarding `COc1cc2c(cc1OC)CCN=C2`, the result was inactive.

By EC50 is commonly meant the concentration giving half of the maximal effect. In general, IC50 refers to the concentration that inhibits the measured activity by half. A lower IC50 goes with greater potency.

The record behind these values is PubChem BioAssay AID179 (DTP/NCI, 2004).
